A short description of data set [1]: Absorption test in rats (plasma concentration after oral administration). Format: in vivo, male SD rats. Conditions: for Cmax (maximum plasma concentration): 100 mg/kg single oral administration by gastric tube, suspended in 0.5% aqueous methyl cellulose, plasma by HPLC; for Cmax (maximum plasma concentration) / AUC (area under the plasma concentration vs. time curve): fasted male SD rats; for AUC (area under the plasma concentration vs. time curve): 100 mg/kg single oral administration, trapezoidal equation plus elimination rate constant; for absorption as compared with the α-form crystals: rats, oral 100 mg/kg, regardless of whether crushed or not. The protocol: A comparison of absorption into bodies of rats was conducted for each of the crystal forms and their crushed products of the quinolinone derivative represented with chemical formula (I). Furthermore, each of the crystal forms of the quinolinone derivative represented with chemical formula (I) were crushed using an automated agate mortar.
The following provides an explanation of the test method.
100 mg/kg of each sample were administered orally in a single administration using a gastric tube to 3 male SD rats (age 6 weeks) fasted for 16 hours. The samples were administered after suspending in 0.5% aqueous methyl cellulose solution and preparing to a concentration of […]. Following administration, blood samples were collected over time from the tail vein using heparin-treated glass tubes, and the quinolinone derivative concentrations of the resulting plasma were assayed by HPLC.
The maximum Plasma concentration (Cmax) and area under the plasma concentration vs. time curve (AUC) were determined from the assayed values of the quinolinone derivative at each blood sampling time.
Furthermore, Cmax was determined using measured values, while AUC was determined by calculating according to a trapezoidal equation until the time of measurement, and using the elimination rate constant after that time. The Cmax and AUC of each crystal form of the quinolinone derivative represented with chemical formula (I) are described as comparative examples.

Data set [2] in a line: Photostability test (6 months under direct sunlight, HPLC content). The class given is physicochemical. Particulars: room temperature; for stability with respect to light compared among crystal forms: 6 months direct sunlight; for Residual rate of quinolinone derivative: transparent sealed container, nitrogen, direct sunlight. The protocol:
0.5 g of each of the crystal forms of the quinolinone derivative represented with chemical formula (I) were filled into a transparent and sealed container in a nitrogen atmosphere, and were stored for 6 months under direct sunlight at room temperature.
The content of each crystal form of the quinolinone derivative represented with chemical formula (I) was assayed over time by HPLC followed by a comparison of stability.

Where [3] appears, read: storage period 0 days (100% prior to storage).

As for `CCCCCCCCOc1c(O)c2ccc(NC(=O)/C=C/c3cc(OC)c(O)c(OC)c3)cc2n(C)c1=O` [Crushed α-form crystals], in data set [1], the “Cmax (maximum plasma concentration)” value came to 33000 ng/mL and the “AUC (area under the plasma concentration vs. time curve)” value was found to be 253 µg·h/mL.

As to `CCCCCCCCOc1c(O)c2ccc(NC(=O)/C=C/c3cc(OC)c(O)c(OC)c3)cc2n(C)c1=O` [Crushed β-form crystals], in data set [1], the “Cmax (maximum plasma concentration)” value is 67000 ng/mL and the “AUC (area under the plasma concentration vs. time curve)” value was 586 µg·h/mL.

Take `CCCCCCCCOc1c(O)c2ccc(NC(=O)/C=C/c3cc(OC)c(O)c(OC)c3)cc2n(C)c1=O` [Crushed γ-form crystals]: in data set [1], the “Cmax (maximum plasma concentration)” value was 65000 ng/mL and the “AUC (area under the plasma concentration vs. time curve)” value worked out at 575 µg·h/mL.

`CCCCCCCCOc1c(O)c2ccc(NC(=O)/C=C/c3cc(OC)c(O)c(OC)c3)cc2n(C)c1=O` [Crushed δ-form crystals]: in data set [1], the “Cmax (maximum plasma concentration)” value turned out to be 63000 ng/mL and the “AUC (area under the plasma concentration vs. time curve)” value worked out at 597 µg·h/mL.

As for `CCCCCCCCOc1c(O)c2ccc(NC(=O)/C=C/c3cc(OC)c(O)c(OC)c3)cc2n(C)c1=O` [α-form crystals], in data set [1], the “Cmax (maximum plasma concentration)” value amounted to 10000 ng/mL. Besides, the “AUC (area under the plasma concentration vs. time curve)” value in data set [1] is 73 µg·h/mL. For the same molecule, the “stability with respect to light compared among crystal forms” value (shortened to “stability … compared among crystal forms”) in data set [2] is reported as “relatively stable”. For the same molecule, the “Residual rate of quinolinone derivative” value in data set [2] (setting [3]) stood at 100%; in data set [2] (storage period 1 month) it was 97.2%; in data set [2] (storage period 6 months), 85.1%; in data set [2] (storage period 15 days), 99.1%.

As to `CCCCCCCCOc1c(O)c2ccc(NC(=O)/C=C/c3cc(OC)c(O)c(OC)c3)cc2n(C)c1=O` [β-form crystals], in data set [1], the “Cmax (maximum plasma concentration)” value is 41000 ng/mL. Moreover, the “AUC (area under the plasma concentration vs. time curve)” value in data set [1] was 375 µg·h/mL. In data set [1], the “absorption as compared with the α-form crystals” value is reported as “superior absorption”. In addition, the “stability … compared among crystal forms” value in data set [2] was “relatively stable”. Further, the “Residual rate of quinolinone derivative” value was determined as 100% in data set [2] (setting [3]), 96.8% in data set [2] (storage period 1 month), 84.5% in data set [2] (storage period 6 months) and 98.7% in data set [2] (storage period 15 days).

Consider `CCCCCCCCOc1c(O)c2ccc(NC(=O)/C=C/c3cc(OC)c(O)c(OC)c3)cc2n(C)c1=O` [γ-form crystals], for which, in data set [1], the “Cmax (maximum plasma concentration)” value worked out at 38000 ng/mL. For the same molecule, the “AUC (area under the plasma concentration vs. time curve)” value in data set [1] came to 325 µg·h/mL. The “absorption as compared with the α-form crystals” value in data set [1] is “superior absorption”. In data set [2], the “stability … compared among crystal forms” value is “relatively stable”. Moreover, the “Residual rate of quinolinone derivative” value in data set [2] (setting [3]) was 100%; in data set [2] (storage period 1 month), 96.5%; in data set [2] (storage period 6 months), 84.1%; in data set [2] (storage period 15 days), 98.9%.

For the molecule `CCCCCCCCOc1c(O)c2ccc(NC(=O)/C=C/c3cc(OC)c(O)c(OC)c3)cc2n(C)c1=O` [δ-form crystals], the “Cmax (maximum plasma concentration)” value in data set [1] was found to be 51000 ng/mL. Moreover, the “AUC (area under the plasma concentration vs. time curve)” value in data set [1] worked out at 512 µg·h/mL. The “absorption as compared with the α-form crystals” value in data set [1] is on record as “superior absorption”. Also, in data set [2], the “stability … compared among crystal forms” value was “extremely unstable”. For the same molecule, the “Residual rate of quinolinone derivative” value in data set [2] (setting [3]) came out at 100%; in data set [2] (storage period 1 month), 91.4%; in data set [2] (storage period 6 months) it was 57.3%; in data set [2] (storage period 15 days) it was 96.2%.

Source of the values: patent US6706733B2, “Quinolinone derivative formulation and its production method” (Dainippon Ink and Chemicals, Inc., priority 1999, dated 2004).
